Reference: US7718664B2, “Anti-itching agent” (Toray Industries, Inc., priority 2004, dated 2010)
Counter-ions that a name gives are not always drawn.

system: Male ddY mice; experiment: Inhibitory effect of scratching behavior induced by Substance-P; type: in vivo, mouse; conditions: test drug sc 30 minutes before intradermal Substance-P, scratching counted for 30 minutes
Procedure: Male ddY mice were purchased when they were 4 weeks old, and used in the experiments when they became 5 weeks old after acclimation. One day before experiment, each mouse had hair on the rostral back skin clipped with a hair clipper. Each of test drugs was dissolved in 10% DMSO. Either the test drug or vehicle was administered subcutaneously into the rostral back of the mouse, and 30 minutes later, Substance-P (250 nmom/site) dissolved in PBS (phosphate buffered saline) was administered intradermally into the hair-clipped skin at a dose of about 50 μL. Immediately thereafter, each mouse was put into a cage for observation (10*14*22 cm), and the subsequent behavior of each mouse was recorded by an unattended video camera for 30 minutes. The video tape was replayed, and the number of times that the mouse scratched at or around the Substance-P-administered site with its hind limb was counted. In the experiment, each group consisted of 8 mice. In cases where there was a statistically significant difference in the mean number of scratching between the solvent-administered group and the test drug-administered group, the test drug was judged to have an antipruritic effect. The results are shown in terms of the predicted administration dosage at which the number of scratching was reduced to half of that in the solvent-administered group (Table 5).

Structure (SMILES) | ED50 (predicted administration dosage at which the number of scratching was reduced to half of that in the solvent-administered group)
O=C1c2ccccc2C(=O)N1[C@@H]1CC[C@@]2(O)[C@H]3Cc4ccc(O)c5c4[C@@]2(CCN3CC2CC2)[C@H]1O5 [Compound 1, N-[(17-cyclopropylmethyl)-4,5α-epoxy-3,14-dihydroxy-morphinan-6β-yl]-phthalimide hydrochloric acid salt] | 0.0034 mg/kg, sc
C=CCN1CC[C@]23c4c5ccc(O)c4O[C@H]2[C@H](N2C(=O)c4ccccc4C2=O)CC[C@@]3(O)[C@H]1C5 [Compound 2, N-[(17-allyl)-4,5α-epoxy-3,14-dihydroxy-morphinan-6β-yl]-phthalimide tartaric acid salt] | 0.32 mg/kg, sc
O=C1C2=C(CCCC2)C(=O)N1[C@@H]1CC[C@@]2(O)[C@H]3Cc4ccc(O)c5c4[C@@]2(CCN3CC2CC2)[C@H]1O5 [Compound 3, N-[(17-cyclopropylmethyl)-4,5α-epoxy-3,14-dihydroxy-morphinan-6β-yl]-3,4,5,6-tetrahydrophthalimide tartaric acid salt] | 0.0033 mg/kg, sc
O=C1c2ccccc2S(=O)(=O)N1[C@@H]1CC[C@@]2(O)[C@H]3Cc4ccc(O)c5c4[C@@]2(CCN3CC2CC2)[C@H]1O5 [Compound 4, [N-(17-cyclopropylmethyl)-4,5α-epoxy-3,14-dihydroxy-morphinan-6β-yl]-O-sulfonebenzimide tartaric acid salt] | 0.0081 mg/kg, sc
O=C1c2ccccc2CN1[C@@H]1CC[C@@]2(O)[C@H]3Cc4ccc(O)c5c4[C@@]2(CCN3CC2CC2)[C@H]1O5 [Compound 5, 2-[(17-cyclopropylmethyl)-4,5α-epoxy-3,14-dihydroxy-morphinan-6β-yl]-2,3-dihydro-isoindole-1-one tartaric acid salt] | 0.015 mg/kg, sc
O=C1c2ccccc2C(=O)N1[C@@H]1CC[C@@]2(O)[C@H]3Cc4ccc(O)c5c4[C@@]2(CCN3CC2CC2)[C@H]1O5 [Compound 6, N-[(17-cyclopropylmethyl)-4,5α-epoxy-3,14-dihydroxy-morphinan-6β-yl]-phthalimide] | 0.0029 mg/kg, sc
CN(C(=O)c1ccccc1)[C@@H]1CC[C@@]2(O)[C@H]3Cc4ccc(O)c5c4[C@@]2(CCN3CC2CC2)[C@H]1O5 [Compound 7, 17-cyclopropylmethyl-4,5α-epoxy-3,14-dihydroxy-6β-(N-methylbenzamido)-morphinan hydrochloric acid salt, reference compound] | 0.55(Reference Example) mg/kg, sc

system: not given; experiment: not given; conditions: in vivo; cited from earlier work

Structure (SMILES) | effect on severe pruritus in cholestasia with hepathopathy
C=C1CC[C@@]2(O)[C@H]3Cc4ccc(O)c5c4[C@@]2(CCN3CC2CC2)[C@H]1O5 [nalmefene] | suppressed

system: not given; experiment: not given; conditions: epidurally or intrathecally administered; cited from earlier work

Structure (SMILES) | induction of pruritus
CN1CC[C@]23c4c5ccc(O)c4O[C@H]2[C@@H](O)C=C[C@H]3[C@H]1C5 [morphine] | induced
